In patent publication US10435402B2, “Bicyclic compounds, compositions and medicinal applications thereof” (Advinus Therapeutics Limited, priority 2015, dated 2019) one finds IC50 data, which are given here for 29 molecules.

SMILES strings stand for the structures.

For orientation: IC50 means the concentration that inhibits the measured activity by half. A low value points to inhibition by little substance.

For this test, the target named is T1, GAL4-DBD/RORγ-LBD (Homo sapiens, UniProt P51449).
T1 construct: expressed in transfected cells; host or cells: HEK293T
T1 sequence (P51449 269-508 limits assumed): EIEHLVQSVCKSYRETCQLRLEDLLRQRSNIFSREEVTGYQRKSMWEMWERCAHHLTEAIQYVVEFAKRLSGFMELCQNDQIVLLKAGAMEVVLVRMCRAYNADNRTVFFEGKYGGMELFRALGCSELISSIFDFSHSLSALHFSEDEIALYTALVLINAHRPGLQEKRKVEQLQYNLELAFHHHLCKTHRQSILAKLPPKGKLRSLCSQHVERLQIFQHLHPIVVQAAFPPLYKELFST
T1 sequence (P04386 1-147 partner limits assumed): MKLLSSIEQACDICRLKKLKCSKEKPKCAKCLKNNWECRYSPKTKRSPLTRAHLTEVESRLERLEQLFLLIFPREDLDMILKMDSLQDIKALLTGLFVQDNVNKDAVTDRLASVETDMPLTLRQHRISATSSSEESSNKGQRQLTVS
The test can be described thus: RORγt transactivation reporter assay (GAL4-DBD/RORγ-LBD, luciferase read out). Format: cell-based. The note with it: HEK293T cells, GAL4-UAS luciferase reporter, overnight (18-24 hours) incubation. As for the experimental part: RORγt Transactivation Reporter Assay Protocol: The inhibition of RORγt activity in cells was evaluated using a GAL4-UAS reporter system in HEK293T cells employing a luciferase read out. RORγt ligand binding domain (LBD) was cloned into the pFN26A (BIND) vector (Promega #[…]) containing yeast GAL4-DBD to form a RORγt LBD-GAL4 DBD fusion construct. This vector also contained a Renilla Luciferase reporter expressed under a SV40 promoter which was used as a control for transfection efficiency. A transcriptional reporter expression construct pGL4.35 (Promega #[…]) was used to monitor RORγt LBD-GAL4 activity. This construct contained nine repeats of GAL4 binding site/upstream activating sequence (UAS) controlling expression of a firefly luciferase reporter Luc2P. When transfected together in cells, the RORγ-LBD-DBD fusion protein drives expression of the luciferase reporter. For the assay, HEK293T cells were plated in a flat bottom 96 well plate at a density of 25,000 cells/well/100 ul of DMEM high glucose medium (Sigma D5648) containing 10% FBS and antibiotic. Cells were incubated overnight at 37 C/5% CO2. The next day, medium from the wells was removed and replaced with 30 ul of OptiMEM® (Invitrogen #31985070). 100 ng each of pBIND RORγ LBD-DBD and pGL4.35 reporter plasmids was transfected in HEK293T cells using Lipofectamine 2000 (Invitrogen #11668-019) where 10 ul of transfection complex was added to the each well. Control transfections were performed with an empty pF[…] vector and pGL4.35 vector. The transfected cells were incubated for 5 hours at 37 C/5% CO2. After incubation, 40 ul of DMEM high glucose medium without FBS, with antibiotic was added to each well. A 10 mM stock solution of test compound prepared in 100% DMSO was first diluted in DMSO and then in DMEM medium without FBS to give the required final compound concentration. Concentration of DMSO in the test compound solution was 0.4%. 20 ul of diluted compound solution was added to each well. Cells were incubated overnight (18-24 hours) at 37 C/5% CO2. The next day, luciferase assay was performed using the Dual Glo® Luciferase Assay System (Promega #E2940). Briefly, medium was removed from the wells and replaced with 40 ul 1× Passive Lysis Buffer (Promega #E1941). Plate was incubated at room temperature on a plate shaker at 1000 rpm for 40 min. After incubation, plate was centrifuged at 1000 rpm for 2 min. 20 ul of the lysate was transferred from each well to that of solid white half area 96 well plate (Costar #3693). Dual Glo® Reagent was thawed to room temperature and 20 ul was added to each well containing lysate. Plate was centrifuged at 1000 rpm/2 min and incubated at room temperature on a plate shaker at 600 rpm/25 min. Firefly luciferase signal was measured on a Tecan Safire2. After measurement, 20 ul of Dual Glo® Stop Glo® Reagent was added to each well. Plate was centrifuged at 1000 rpm/2 min and incubated at room temperature on a plate shaker at 600 rpm/25 min. Renilla luciferase signal was measured on Tecan Safire 2. IC50 values for test compounds were calculated from the normalized luciferase signal data using GraphPad Prism software.
Background: Reporter assays use an easily measured gene product as a stand-in for the process of interest.
In the case of `O=C(O)c1ccc(-c2cc(C(=O)c3c(Cl)cccc3C3CC3)n3ccccc23)c(F)c1` [Example A-29, 4-[3-(2-chloro-6-cyclopropyl-benzoyl)indolizin-1-yl]-3-fluoro-benzoic acid], the IC50 is below 500 nM.

`CCOC(=O)c1ccc(-c2cc(C(=O)c3c(Cl)cccc3C3CC3)n3ccccc23)c(F)c1` [Example A-30, ethyl 4-[3-(2-chloro-6-cyclopropyl-benzoyl)indolizin-1-yl]-3-fluoro-benzoate] had an IC50 below 500 nM.

As to `CCOC(=O)c1ccc(-c2cc(C(=O)c3c(Cl)cccc3C3CC3)n3ccccc23)cc1` [Example A-31, ethyl 4-[3-(2-chloro-6-cyclopropyl-benzoyl)indolizin-1-yl]benzoate], the IC50 was below 500 nM. As to `CCOC(=O)c1ccc(-c2cc(C(=O)c3c(F)cccc3Cl)n3cccc(F)c23)cc1` [Example A-32, ethyl 4-[3-(2-chloro-6-fluoro-benzoyl)-8-fluoro-indolizin-1-yl]benzoate], the IC50 was below 500 nM. The value for `O=C(O)c1ccc(-c2cc(C(=O)c3c(F)cccc3Cl)n3cccc(F)c23)cc1` [Example A-34, 4-[3-(2-chloro-6-fluoro-benzoyl)-8-fluoro-indolizin-1-yl]benzoic acid] was below 500 nM; that for `O=C(O)c1ccc(-c2cc(C(=O)c3c(F)cccc3Cl)n3cccc(F)c23)c(F)c1` [Example A-35, 4-[3-(2-chloro-6-fluoro-benzoyl)-8-fluoro-indolizin-1-yl]-3-fluoro-benzoic acid] was below 500 nM. As for `CCOC(=O)c1ccc(-c2cc(C(=O)c3c(F)cccc3F)n3ccccc23)cc1` [Example A-36, ethyl 4-[3-(2,6-difluorobenzoyl)indolizin-1-yl]benzoate], the IC50 is below 500 nM. Molecule `CCOC(=O)c1ccc(-c2cc(C(=O)c3c(F)cccc3F)n3ccccc23)c(F)c1` [Example A-38, ethyl 4-[3-(2,6-difluorobenzoyl)indolizin-1-yl]-3-fluoro-benzoate] returned an IC50 below 500 nM. Molecule `O=C(O)c1ccc(-c2cc(C(=O)c3c(F)cccc3F)n3ccccc23)c(F)c1` [Example A-39, 4-[3-(2,6-difluorobenzoyl)indolizin-1-yl]-3-fluoro-benzoic acid] returned an IC50 below 500 nM. Molecule `CCOC(=O)c1ccc(-c2cc(C(=O)c3c(F)ccc(F)c3F)n3ccccc23)c(F)c1` [Example A-41, ethyl 3-fluoro-4-[3-(2,3,6-trifluorobenzoyl)indolizin-1-yl]benzoate] displayed an IC50 below 500 nM. Turning to `O=C(O)c1ccc(-c2cc(C(=O)c3c(F)ccc(F)c3F)n3ccccc23)cc1` [Example A-42, 4-[3-(2,3,6-trifluorobenzoyl)indolizin-1-yl]benzoic acid], the IC50 was below 500 nM.

`O=C(O)c1ccc(-c2cc(C(=O)c3c(Cl)ccc(F)c3Cl)n3cccc(F)c23)cc1` [Example A-43, 4-[3-(2,6-dichloro-3-fluoro-benzoyl)-8-fluoro-indolizin-1-yl]benzoic acid]: the IC50 is below 500 nM.

In turn, `O=C(O)c1ccc(-c2cc(C(=O)c3c(F)ccc(F)c3F)n3ccccc23)c(F)c1` [Example A-44, 3-fluoro-4-[3-(2,3,6-trifluorobenzoyl)indolizin-1-yl]benzoic acid] displayed an IC50 below 500 nM. The value for `CCOC(=O)c1ccc(-c2cc(C(=O)c3c(F)cccc3F)n3cccc(F)c23)cc1` [Example A-45, ethyl 4-[3-(2,6-difluorobenzoyl)-8-fluoro-indolizin-1-yl]benzoate] was below 500 nM; that for `CCOC(=O)c1ccc(-c2cc(C(=O)c3c(F)cccc3F)n3cccc(F)c23)c(F)c1` [Example A-46, ethyl 4-[3-(2,6-difluorobenzoyl)-8-fluoro-indolizin-1-yl]-3-fluoro-benzoate] was below 500 nM. The value for `O=C(O)c1ccc(-c2cc(C(=O)c3c(F)cccc3F)n3cccc(F)c23)cc1` [Example A-47, 4-[3-(2,6-difluorobenzoyl)-8-fluoro-indolizin-1-yl]benzoic acid] was below 500 nM; that for `O=C(O)c1ccc(-c2cc(C(=O)c3c(F)cccc3F)n3cccc(F)c23)c(F)c1` [Example A-48, 4-[3-(2,6-difluorobenzoyl)-8-fluoro-indolizin-1-yl]-3-fluoro-benzoic acid] was below 500 nM; that for `O=C(O)c1ccc(-c2cc(C(=O)c3c(Cl)ccc(F)c3Cl)n3cccc(F)c23)c(F)c1` [Example A-49, 4-[3-(2,6-dichloro-3-fluoro-benzoyl)-8-fluoro-indolizin-1-yl]-3-fluoro-benzoic acid] was below 500 nM. Then `O=C(O)c1ccc(-c2cc(C(=O)c3c(Cl)cccc3Br)n3ccccc23)cc1` [Example A-50, 4-[3-(2-bromo-6-chloro-benzoyl)indolizin-1-yl]benzoic acid], with below 5000 nM; and `O=C(O)c1ccc(-c2cc(C(=O)c3c(Cl)cccc3Br)n3ccccc23)c(F)c1` [Example A-52, 4-[3-(2-bromo-6-chloro-benzoyl)indolizin-1-yl]-3-fluoro-benzoic acid], with below 1000 nM.

For the molecule `CC(C)(C)OC(=O)N1CC=C(c2cc(C(=O)c3c(Cl)cccc3Cl)n3ccccc23)CC1` [Example A-54, tert-butyl 4-[3-(2,6-dichlorobenzoyl)indolizin-1-yl]-3,6-dihydro-2H-pyridine-1-carboxylate], the IC50 is above 5000 nM. Molecule `CC(C)(C)OC(=O)N1CCC=C(c2cc(C(=O)c3c(Cl)ccc(F)c3Cl)n3ccccc23)C1` [Example A-55, tert-butyl 5-[3-(2,6-dichloro-3-fluoro-benzoyl)indolizin-1-yl]-3,6-dihydro-2H-pyridine-1-carboxylate] gave a half-maximal inhibitory concentration (IC50) above 5000 nM.

As to `CCOC(=O)c1ccc(-c2cc(C(=O)c3c(Cl)ccc(F)c3Cl)n3ccccc23)cc1` [Example A-56, ethyl 4-[3-(2,6-dichloro-3-fluoro-benzoyl)indolizin-1-yl]benzoate], the IC50 is below 500 nM. Then `O=C(O)c1cccc(-c2cc(C(=O)c3c(Cl)cccc3C(F)(F)F)n3ccccc23)c1` [Example A-57, 3-[3-[2-chloro-6-(trifluoromethyl)benzoyl]indolizin-1-yl]benzoic acid], with above 5000 nM; and `O=C(O)c1ccc(-c2cc(C(=O)c3c(Cl)cccc3C(F)(F)F)n3cccc(Cl)c23)cc1` [Example A-58, 4-[8-chloro-3-[2-chloro-6-(trifluoromethyl)benzoyl]indolizin-1-yl]benzoic acid], with below 500 nM; and `O=C(O)c1ccc(-c2cc(C(=O)c3c(Cl)cccc3C(F)(F)F)n3cccc(Cl)c23)c(F)c1` [Example A-59, 4-[8-chloro-3-[2-chloro-6-(trifluoromethyl)benzoyl]indolizin-1-yl]-3-fluoro-benzoic acid], with below 500 nM. Then `O=C(O)c1ccc(-c2cc(C(=O)c3c(Cl)cccc3C(F)(F)F)n3ccccc23)cc1F` [Example A-60, 4-[3-[2-chloro-6-(trifluoromethyl)benzoyl]indolizin-1-yl]-2-fluoro-benzoic acid], with below 500 nM; and `O=C(O)c1ccc(-c2cc(C(=O)c3c(Cl)cccc3Cl)n3cccc(C(F)(F)F)c23)cc1` [Example A-61, 4-[3-(2,6-dichlorobenzoyl)-8-(trifluoromethyl)indolizin-1-yl]benzoic acid], with below 500 nM; and `CCOC(=O)c1ccc(-c2cc(C(=O)c3c(Cl)cccc3Cl)n3cccc(C(F)(F)F)c23)cc1` [Example A-62, ethyl 4-[3-(2,6-dichlorobenzoyl)-8-(trifluoromethyl)indolizin-1-yl]benzoate], with below 500 nM.
